Test results taken from PubChem BioAssay (NCI).
Several values for one entry are separate records, joined by “and”; a condition that tells them apart may be missing. Identical values can stand only once.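 Results reflect a 48-hour exposure of cells in 96-well plates to compound at five concentrations. GI50: concentration for 50% inhibition of growth. TGI: concentration producing complete growth inhibition.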

Key:
Assay in all cases: NCI-60 cell line screen, 48 h
[1] = tested on: NCI-H226 lung
[2] = tested on: SNB-78 CNS
[3] = tested on: RPMI-8226 leukemia
[4] = tested on: A549 NSCLC
[5] = tested on: SF-539 CNS
[6] = tested on: HCT-15 colon
[7] = tested on: OVCAR-8 ovarian
[8] = tested on: SK-MEL-5 melanoma
[9] = tested on: KM12 colon
[10] = tested on: CAKI-1 renal
[11] = tested on: UACC-62 melanoma
[12] = tested on: MALME-3M melanoma
[13] = tested on: NCI-H460 lung
[14] = tested on: SNB-19 CNS
[15] = tested on: 786-0 renal
[16] = tested on: SF-268 CNS
[17] = tested on: HT29 colon
[18] = tested on: SK-OV-3 ovarian
[19] = tested on: MDA-MB-231 breast
[20] = tested on: NCI-H23 lung
[21] = tested on: M14 melanoma
[22] = tested on: UACC-257 melanoma
[23] = tested on: OVCAR-5 ovarian
[24] = tested on: HL-60(TB) leukemia
[25] = tested on: IGROV1 ovarian
[26] = tested on: ACHN renal
[27] = tested on: SNB-75 CNS
[28] = tested on: NCI-H522 lung
[29] = tested on: SN12C renal
[30] = tested on: SK-MEL-28 melanoma
[31] = tested on: HOP-62 NSCLC
[32] = tested on: LXFL 529 NSCLC
[33] = tested on: DMS 114 small cell lung
[34] = tested on: SK-MEL-2 melanoma
[35] = tested on: EKVX NSCLC
[36] = tested on: MDA-MB-435
[37] = tested on: COLO 205 colon
[38] = tested on: HCC-2998 colon
[39] = tested on: K-562 leukemia
[40] = tested on: PC-3 prostate
[41] = tested on: SR leukemia
[42] = tested on: RXF 393 renal
[43] = tested on: HOP-92 NSCLC
[44] = tested on: OVCAR-4 ovarian
[45] = tested on: A498 renal
[46] = tested on: LOX IMVI melanoma
[47] = tested on: MCF7 breast
[48] = tested on: TK-10 renal
[49] = tested on: SF-295 CNS
[50] = tested on: U251 CNS
[51] = tested on: KM20L2 colon
[52] = tested on: OVCAR-3 ovarian
[53] = tested on: HOP-18 NSCLC
[54] = tested on: MDA-N
[55] = tested on: MOLT-4 leukemia
[56] = tested on: CCRF-CEM leukemia
[57] = tested on: M19-MEL melanoma
[58] = tested on: SW-620 colon
[59] = tested on: UO-31 renal
[60] = tested on: RXF-631 renal
[61] = tested on: HCT-116 colon
[62] = tested on: DLD-1 colon

SMILES: CN1CCN(CCn2c3c4ccccc4ccc3c3oc(=O)c4ccccc4c32)CC1
- TGI [1]: 33.5 µM
- TGI [2]: 16.4 µM
- GI50 [3]: 1.84 µM
- TGI [3]: 3.79 µM and 15 µM
- GI50 [4]: 2.91 µM
- TGI [4]: 8.92 µM and 8.94 µM
- TGI [5]: 3.47 µM and 3.08 µM
- GI50 [6]: 1.61 µM
- TGI [6]: 3.21 µM and 7.92 µM
- GI50 [7]: 2.32 µM
- TGI [7]: 5.13 µM and 3.37 µM
- TGI [8]: 3.41 µM
- GI50 [9]: 2.13 µM
- TGI [9]: 4.54 µM and 6.56 µM
- TGI [10]: 16.7 µM
- GI50 [11]: 2.14 µM
- TGI [11]: 4.74 µM and 5.11 µM
- TGI [12]: 29.3 µM
- GI50 [13]: 1.46 µM
- TGI [13]: 4.09 µM and 2.95 µM
- GI50 [14]: 1.5 µM
- TGI [14]: 7.24 µM and 10.9 µM
- GI50 [15]: 1.96 µM
- TGI [15]: 3.76 µM and 4.07 µM
- GI50 [16]: 5.03 µM
- TGI [16]: 14 µM
- GI50 [17]: 1.65 µM
- TGI [17]: 3.3 µM and 2.71 µM
- TGI [18]: 27.4 µM
- TGI [19]: 3.59 µM
- GI50 [20]: 1.92 µM
- TGI [20]: 3.72 µM and 15.7 µM
- GI50 [21]: 1.94 µM
- TGI [21]: 3.43 µM and 3.29 µM
- GI50 [22]: > 1 µM
- TGI [22]: > 1 µM and 2.96 µM
- TGI [23]: 10.4 µM
- TGI [24]: 3.47 µM
- GI50 [25]: > 1 µM
- TGI [25]: > 1 µM and 31.1 µM
- TGI [26]: 7.42 µM
- TGI [27]: 16.6 µM
- GI50 [28]: 1.68 µM
- TGI [28]: 3.29 µM and 10.4 µM
- GI50 [29]: 4.44 µM
- TGI [29]: 3.05 µM
- GI50 [30]: 1.99 µM
- TGI [30]: 3.47 µM and 9.37 µM
- GI50 [31]: 10.1 µM
- TGI [31]: 4.65 µM and 23.7 µM
- TGI [32]: 8.07 µM
- TGI [33]: 3.84 µM
- TGI [34]: 27.7 µM
- TGI [35]: 25.5 µM
- TGI [36]: 3.35 µM
- GI50 [37]: 2 µM
- TGI [37]: 3.4 µM and 5.14 µM
- GI50 [38]: 4.22 µM
- TGI [38]: 3.74 µM and 18.7 µM
- TGI [39]: 2.89 µM and 4.29 µM
- TGI [40]: 4.59 µM
- TGI [41]: 3.13 µM
- GI50 [42]: 5.75 µM
- TGI [42]: > 1 µM and 19.9 µM
- GI50 [43]: 3.44 µM
- TGI [43]: 17 µM
- TGI [44]: 6.85 µM
- GI50 [45]: 18.7 µM
- TGI [45]: 38.3 µM
- GI50 [46]: 1.61 µM and 4.84 µM
- TGI [47]: 3.03 µM
- TGI [48]: 22.5 µM
- GI50 [49]: 1.88 µM
- TGI [49]: 4.5 µM and 9.45 µM
- TGI [50]: 6.25 µM and 6.92 µM
- TGI [51]: 7.79 µM
- TGI [52]: 23.7 µM
- TGI [53]: 25.1 µM
- TGI [54]: 2.95 µM
- TGI [55]: 3.2 µM and 4.38 µM
- TGI [56]: 3.2 µM and 3.94 µM
- TGI [57]: 24.7 µM
- TGI [58]: 4.29 µM and 5.33 µM
- GI50 [59]: 3.08 µM
- TGI [59]: 11.9 µM
- TGI [60]: 17.8 µM
- GI50 [61]: 1.55 µM
- TGI [61]: 2.88 µM and 3.79 µM
- TGI [62]: 6.13 µM

SMILES: COc1ccc(NC(=O)C2C(=O)N(c3ccc(OC)cc3)C(=O)/C2=N\N)cc1 (stereo not drawn)
- TGI [2]: > 100 µM
- TGI [4]: > 100 µM
- TGI [5]: > 100 µM
- TGI [6]: > 100 µM
- TGI [7]: > 100 µM
- TGI [8]: > 100 µM
- TGI [9]: > 100 µM
- TGI [11]: > 100 µM
- TGI [12]: > 100 µM
- TGI [13]: > 100 µM
- TGI [14]: > 100 µM
- TGI [15]: > 100 µM
- TGI [16]: > 100 µM
- TGI [17]: > 100 µM
- TGI [20]: > 100 µM
- TGI [21]: > 100 µM
- TGI [22]: > 100 µM
- TGI [23]: > 100 µM
- TGI [24]: > 100 µM
- TGI [25]: > 100 µM
- TGI [26]: > 100 µM
- TGI [28]: > 100 µM
- TGI [29]: > 100 µM
- TGI [30]: > 100 µM
- TGI [31]: > 100 µM
- TGI [32]: > 100 µM
- TGI [33]: > 100 µM
- TGI [34]: > 100 µM
- TGI [35]: > 100 µM
- TGI [37]: > 100 µM
- TGI [38]: > 100 µM
- TGI [39]: > 100 µM
- TGI [41]: > 100 µM
- TGI [42]: > 100 µM
- TGI [43]: > 100 µM
- TGI [45]: > 100 µM
- TGI [48]: > 100 µM
- TGI [49]: > 100 µM
- TGI [50]: > 100 µM
- TGI [51]: > 100 µM
- TGI [53]: > 100 µM
- TGI [55]: > 100 µM
- TGI [56]: > 100 µM
- TGI [57]: > 100 µM
- TGI [58]: > 100 µM
- TGI [59]: > 100 µM
- TGI [60]: > 100 µM
- TGI [61]: > 100 µM
- TGI [62]: > 100 µM
